Data as given in the NIST ThermoML archive (doi:10.1021/je201349k).
± gives the expanded uncertainty stated by the source.

Details: Liquid

Q: For `CC(C)(C)N` [2-methyl-2-propanamine], which “vapor or sublimation pressure” value (317.55 K) is on record?
A: 101 ± 0.86 kPa

Q: Which “vapor or sublimation pressure” value (425.15 K) does the source give for `CN(C)C=O` [dimethylformamide] here?
A: 101 ± 0.86 kPa

Q: For `CO` [methanol], which “vapor or sublimation pressure” value (337.85 K) is on record?
A: 101 ± 0.86 kPa
